The values below are quoted from earlier work in patent publication US20230364009A1, “Implantable Medical Device for the Delivery of an Antipsychotic” (Celanese EVA Performance Polymers LLC, priority 2022, published 2023).

Structures are written as SMILES.

Among the targets are dopamine D1 (Homo sapiens, UniProt P21728); β1 adrenergic receptors (Homo sapiens, UniProt P08588); β2 adrenergic receptors (Homo sapiens, UniProt P07550).
In series [1] the target is dopamine Type 2 (D2) receptors (Homo sapiens, UniProt P14416).
Sequence of dopamine Type 2 (D2) receptors (P14416 whole entry): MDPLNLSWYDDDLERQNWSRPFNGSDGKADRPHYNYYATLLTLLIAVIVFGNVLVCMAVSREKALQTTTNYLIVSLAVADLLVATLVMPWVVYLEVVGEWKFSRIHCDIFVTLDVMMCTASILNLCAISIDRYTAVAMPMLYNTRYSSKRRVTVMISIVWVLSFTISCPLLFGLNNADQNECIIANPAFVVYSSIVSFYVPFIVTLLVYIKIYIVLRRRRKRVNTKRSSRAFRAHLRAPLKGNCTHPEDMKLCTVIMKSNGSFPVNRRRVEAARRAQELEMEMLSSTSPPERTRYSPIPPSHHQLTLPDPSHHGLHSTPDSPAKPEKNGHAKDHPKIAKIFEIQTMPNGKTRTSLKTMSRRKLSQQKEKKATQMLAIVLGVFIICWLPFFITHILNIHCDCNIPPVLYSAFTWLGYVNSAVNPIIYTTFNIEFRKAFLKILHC
Series [2] concerns the target T1, serotonin 5HT1c receptors (Homo sapiens, UniProt P28335).
T1 sequence (P28335 33-458): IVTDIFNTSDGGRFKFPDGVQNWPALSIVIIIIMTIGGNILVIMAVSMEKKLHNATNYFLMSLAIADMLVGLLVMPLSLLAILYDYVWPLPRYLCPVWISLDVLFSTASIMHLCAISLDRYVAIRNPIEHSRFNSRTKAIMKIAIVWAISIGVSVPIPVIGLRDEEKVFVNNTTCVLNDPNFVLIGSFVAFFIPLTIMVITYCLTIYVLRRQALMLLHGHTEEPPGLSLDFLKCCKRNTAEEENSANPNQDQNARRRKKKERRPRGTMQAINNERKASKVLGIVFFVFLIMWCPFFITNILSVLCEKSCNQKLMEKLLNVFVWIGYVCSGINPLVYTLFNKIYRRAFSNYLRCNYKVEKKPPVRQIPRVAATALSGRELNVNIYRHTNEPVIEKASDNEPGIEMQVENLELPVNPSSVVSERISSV

Series [3] deals with serotonin 5HT1D receptors (Homo sapiens, UniProt P28221).
Sequence of serotonin 5HT1D receptors (P28221 whole entry): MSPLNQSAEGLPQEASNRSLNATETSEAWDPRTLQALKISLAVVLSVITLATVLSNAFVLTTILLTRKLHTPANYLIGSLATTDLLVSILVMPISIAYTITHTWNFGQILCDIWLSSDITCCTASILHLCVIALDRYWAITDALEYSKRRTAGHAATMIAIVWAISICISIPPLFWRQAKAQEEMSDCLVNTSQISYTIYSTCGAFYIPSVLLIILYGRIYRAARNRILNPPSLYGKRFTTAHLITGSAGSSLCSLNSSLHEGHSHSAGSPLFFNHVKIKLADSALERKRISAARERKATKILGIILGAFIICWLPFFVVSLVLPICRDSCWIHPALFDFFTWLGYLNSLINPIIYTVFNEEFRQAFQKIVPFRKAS
The target of series [4] is T2, serotonin 5HT1A receptors (Homo sapiens, UniProt P08908).
T2 sequence (P08908 1-422): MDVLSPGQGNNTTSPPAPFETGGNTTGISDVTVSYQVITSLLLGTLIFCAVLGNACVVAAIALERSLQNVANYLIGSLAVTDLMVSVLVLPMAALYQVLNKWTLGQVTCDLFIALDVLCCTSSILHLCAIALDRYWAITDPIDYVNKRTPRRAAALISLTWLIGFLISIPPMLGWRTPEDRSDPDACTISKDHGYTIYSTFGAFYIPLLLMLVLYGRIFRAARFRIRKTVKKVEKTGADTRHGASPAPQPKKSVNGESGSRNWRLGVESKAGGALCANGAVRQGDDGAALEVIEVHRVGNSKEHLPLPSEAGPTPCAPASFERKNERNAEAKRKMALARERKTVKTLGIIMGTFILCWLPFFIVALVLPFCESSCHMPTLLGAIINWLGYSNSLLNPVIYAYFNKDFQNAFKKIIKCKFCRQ

Series [5] has as its system haloperidol-sensitive sigma site.

Sequence of β2 adrenergic receptors (P07550 whole entry): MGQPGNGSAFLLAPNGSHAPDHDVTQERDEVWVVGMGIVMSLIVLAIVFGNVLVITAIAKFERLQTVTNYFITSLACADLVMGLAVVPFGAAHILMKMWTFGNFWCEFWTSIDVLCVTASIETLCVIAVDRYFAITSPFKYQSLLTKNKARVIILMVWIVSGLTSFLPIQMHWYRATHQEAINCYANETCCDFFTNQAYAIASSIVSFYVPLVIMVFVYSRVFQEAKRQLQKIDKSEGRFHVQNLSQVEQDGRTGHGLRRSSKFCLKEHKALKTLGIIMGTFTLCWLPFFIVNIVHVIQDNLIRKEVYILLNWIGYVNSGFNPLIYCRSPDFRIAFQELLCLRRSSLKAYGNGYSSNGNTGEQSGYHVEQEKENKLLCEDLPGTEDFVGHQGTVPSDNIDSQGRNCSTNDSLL
Sequence of β1 adrenergic receptors (P08588 whole entry): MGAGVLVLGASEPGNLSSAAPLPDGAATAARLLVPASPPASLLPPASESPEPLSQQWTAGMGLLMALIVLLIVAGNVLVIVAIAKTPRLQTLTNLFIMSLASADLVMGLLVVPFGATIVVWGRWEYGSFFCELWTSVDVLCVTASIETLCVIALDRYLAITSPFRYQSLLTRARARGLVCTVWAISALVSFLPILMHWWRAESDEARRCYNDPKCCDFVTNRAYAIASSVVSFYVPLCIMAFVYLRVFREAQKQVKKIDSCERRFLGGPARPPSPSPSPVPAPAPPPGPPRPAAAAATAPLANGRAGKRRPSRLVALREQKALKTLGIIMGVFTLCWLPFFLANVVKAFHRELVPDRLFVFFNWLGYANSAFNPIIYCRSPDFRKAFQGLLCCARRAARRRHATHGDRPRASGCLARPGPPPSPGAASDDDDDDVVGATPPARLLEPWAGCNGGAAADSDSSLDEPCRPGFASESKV
Sequence of dopamine D1 (P21728 whole entry): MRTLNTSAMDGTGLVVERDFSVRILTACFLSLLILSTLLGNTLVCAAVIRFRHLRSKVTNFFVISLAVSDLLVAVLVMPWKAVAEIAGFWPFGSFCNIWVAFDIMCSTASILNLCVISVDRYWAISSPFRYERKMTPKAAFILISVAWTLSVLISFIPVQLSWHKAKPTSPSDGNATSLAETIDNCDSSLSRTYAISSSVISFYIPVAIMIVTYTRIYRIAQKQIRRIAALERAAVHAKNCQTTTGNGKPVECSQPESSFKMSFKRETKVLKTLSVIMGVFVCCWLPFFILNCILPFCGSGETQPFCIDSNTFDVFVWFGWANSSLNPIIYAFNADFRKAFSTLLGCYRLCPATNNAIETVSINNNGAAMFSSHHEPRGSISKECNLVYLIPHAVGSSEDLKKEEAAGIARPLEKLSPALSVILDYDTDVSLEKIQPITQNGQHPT

For `Cc1nc2n(c(=O)c1CCN1CCC(c3noc4cc(F)ccc34)CC1)CCCC2` [Risperidone, risperidone], the affinity result in [1] is reported as “high affinity”; in the series on α1 adrenergic receptors it was “high affinity”; in the series on α2 adrenergic receptors, “high affinity”; in series [2] it was “low to moderate affinity”; in series [3], “low to moderate affinity”; in series [4] it was “low to moderate affinity”. Also, the affinity result on dopamine D1 is “weak affinity”; in [5], “weak affinity”; at β1 adrenergic receptors, “no affinity”; on β2 adrenergic receptors, “no affinity”.
